Results published in US10351549B2, “Amide derivatives having multimodal activity against pain” (priority 2015, dated 2019).

Tested on: human σ1 receptor and human μ-opioid receptor
Assay: Human σ1 receptor and human μ-opioid receptor radioligand assays (μ and σ1 dual binding)
Parameters: key to μ and σ1 dual binding: +: Both Ki-μ and Ki-σ1>=500 nM; ++: One Ki<500 nM while the other Ki is >=500 nM; +++: Both Ki-μ and Ki-σ1<500 nM; ++++: Both Ki-μ and K1-σ1<100 nM
Conditions: joint class for Ki at σ1 ([3H](+)-pentazocine, transfected HEK-293 membranes) and Ki at μ-opioid ([3H]-DAMGO, transfected CHO-K1 membranes)

| SMILES | μ and σ1 dual binding | Ki |
| --- | --- | --- |
| CCC(=O)N(CCN1CCC(N(C)Cc2ccccc2)C1)c1ncccc1F (centres unmarked) [Example 1, N-(2-(3-(Benzyl(methyl)amino)pyrrolidin-1-yl)ethyl)-N-(3-fluoropyridin-2-yl)propionamide] | ++ |  |
| CCC(=O)N(CCN1CCC(N(C)Cc2ccccc2)C1)c1ccccc1 (centres unmarked) [Example 2, N-(2-(3-(benzyl(methyl)amino)pyrrolidin-1-yl)ethyl)-N-phenylpropionamide] |  | < 500 nM |
| CCC(=O)N(CCN1CC[C@H](N(C)Cc2ccccc2)C1)c1ccccc1 [Example 3, (S)-N-(2-(3-(benzyl(methyl)amino)pyrrolidin-1-yl)ethyl)-N-phenylpropionamide] | ++ |  |
| CCC(=O)N(CCN1CC[C@@H](N(C)Cc2ccccc2)C1)c1ccccc1 [Example 4, (R)-N-(2-(3-(benzyl(methyl)amino)pyrrolidin-1-yl)ethyl)-N-phenylpropionamide] |  | < 500 nM |
| CCC(=O)N(CCN1CCC(N(C)Cc2ccccc2)C1)c1cccc(C(F)(F)F)n1 (centres unmarked) [Example 5, N-(2-(3-(benzyl(methyl)amino)pyrrolidin-1-yl)ethyl)-N-(6-(trifluoromethyl)pyridin-2-yl)propionamide] |  | ≥ 500 nM |
| CCC(=O)N(CCN1CCC(N(C)Cc2ccccc2)C1)c1cccc(C(F)(F)F)n1 (centres unmarked) [Example 6] | ++ |  |
| CCC(=O)N(CCN1CC(N(C)Cc2ccccc2)C1)c1cccc(C(F)(F)F)n1 [Example 9, N-(2-(3-(benzyl(methyl)amino)azetidin-1-yl)ethyl)-N-(6-(trifluoromethyl)pyridin-2-yl)propionamide] | ++ |  |
| CCC(=O)N(CCN1CCC(N(C)CC(C)C)C1)c1cccc(C(F)(F)F)n1 (centres unmarked) [Example 12, N-(2-(3-(isobutyl(methyl)amino)pyrrolidin-1-yl)ethyl)-N-(6-(trifluoromethyl)pyridin-2-yl)propionamide] |  | ≥ 500 nM |
| CCOCCN(C)C1CCN(CCN(C(=O)CC)c2cccc(C(F)(F)F)n2)C1 (centres unmarked) [Example 16] |  | ≥ 500 nM |
| CCOCCN(C)C1CCN(CCN(C(=O)CC)c2cccc(C(F)(F)F)n2)C1 (centres unmarked) [Example 17] |  | ≥ 500 nM |
| CCC(=O)N(CCN1CC2CN(CC(C)C)CC2C1)c1cccc(C(F)(F)F)n1 (centres unmarked) [Example 18, N-(2-(5-isobutylhexahydropyrrolo[3,4-c]pyrrol-2(1H)-yl)ethyl)-N-(6-(trifluoromethyl)pyridin-2-yl)propionamide] | ++ |  |
